Test results published in US11807627B2, “Morphic forms of complement factor D inhibitors” (priority 2018, dated 2023).

How the values were obtained:
Type in all cases: physicochemical
[1] = Hydration study in 2-propanol/water systems
Experimental: A hydration study of Compound 3 Form A was conducted using 4 different aw 2-propanol/water solvent systems. Approximately 20 mg of Compound 3 Form A was weighed into four 2 mL glass vials. An appropriate volume of solvent system was added to the solids and samples were agitated for about 48 hours under ambient conditions. After 48 hours, solids were isolated using centrifuge filtration and analyzed by XRPD. […] (FIG. 32)

[2] = Compression of Form A (2.5 KN, 5.0 KN); conditions: initial and repeat
Experimental: Compound 3 Form A material was compressed using a specac press. Approximately 125 mg of Compound 3 Form A was weighed into a 20 mL glass vial. The material was then transferred into an IR die and pressed to 2.5 KN for approx. 5 seconds. The resulting material was (ground lightly to break the disk that was returned and) analyzed by XRPD and PLM. The material was then placed back into the die and pressed to 5.0 KN (for approx. 5 seconds). The resulting material was ground lightly to break the disk that was returned and analyzed by XRPD and PLM. The procedure detail was repeated, using separate batches of solid for 2.5 KN and 5.0 KN experiments. XRPD analysis and PLM analysis was completed on the material returned after pressing. All samples returned Form A material by XRPD and consisted of small birefringent particles with no clear morphology by PLM (FIG. 35A-FIG. 35C).

[3] = Polymorph study: temperature cycling
Experimental: Approximately 960 mg of Compound 3 Form A was weighed into a 20 mL glass vial and dissolved using 12 mL 1,4-dioxane. 0.5 mL of the solution was then dispensed into twenty-four 1.5 mL HPLC glass vials (approx. 40 mg per vial). The Compound 3 Form A solutions were then frozen (at −50° C.) and dried by lyophilization using a Lablyo mini freeze drier. Post-lyophilization, a sub-sample was taken and analyzed by XRPD. Material was successfully rendered amorphous by lyophilization.
An appropriate volume of solvent (solvent systems are detailed in Table 17) was added to lyophilized solids. The samples were temperature cycled between ambient and 40° C. (4 hour cycles) for around 72 hours. Observations were made after 72 hours temperature cycling. Further solvent was added to the samples to produce a mobile slurry and slurries were agitated at 40° C. for approximately 18 additional hours. A sub-sample of solid (where applicable) was analyzed by XRPD. Samples were heated using a heat gun to aid dissolution to ensure saturated solutions were produced. Saturated solutions were syringe filtered to remove any potential seed material (as a precaution) and divided between three different crystallization conditions: cooling, evaporation, and anti-solvent addition (volumes of saturated solutions per condition can be found in Table 17).

[4] = X-ray powder diffraction (XRPD); conditions: Table 27A
Experimental: Most XRPD patterns were collected with a PANalytical X′Pert PRO MPD diffractometer using an incident beam of Cu Kα radiation produced using a long, fine-focus source and a nickel filter. The diffractometer was configured using the symmetric Bragg-Brentano geometry. Prior to the analysis, a silicon specimen (NIST SRM 640e) was analyzed to verify the observed position of the Si 111 peak is consistent with the NIST-certified position. A specimen of the sample was prepared as a thin, circular layer centered on a silicon zero-background substrate. Antiscatter slits (SS) were used to minimize the background generated by air. Soller slits for the incident and diffracted beams were used to minimize broadening from axial divergence. Diffraction patterns were collected using a scanning position-sensitive detector (X′Celerator) located 240 mm from the sample and Data Collector software v. 2.2b.
A few XRPD patterns were collected with a PANalytical X′Pert PRO MPD diffractometer using an incident beam of Cu radiation produced using an Optix long, fine-focus source. […] Prior to the analysis, a silicon specimen (NIST SRM 640e) was analyzed to verify the observed position of the Si 111 peak is consistent with the NIST-certified position. A specimen of the sample was sandwiched between 3-μm-thick films and analyzed in transmission geometry. […]

CC(=O)c1nn(CC(=O)N2[C@H](C(=O)Nc3nc(Br)ccc3C)C[C@@]3(C)C[C@@H]23)c2ccc(-c3cnc(C)nc3)cc12 [Compound 3 Form A]
Hydration study: XRPD results ([1]; Water activity (aw) 0.354, 2-propanol/water, about 48 hours, ambient): Form A | Hydration study: XRPD results ([1]; Water activity (aw) 0.526): Form A | Hydration study: XRPD results ([1]; Water activity (aw) 0.704): Predominantly amorphous | Hydration study: XRPD results ([1]; Water activity (aw) 0.910): Predominantly amorphous | Compression: XRPD ([2]; 2.5 KN): Form A | Compression: XRPD ([2]; 5.0 KN): Form A

CC(=O)c1nn(CC(=O)N2[C@H](C(=O)Nc3nc(Br)ccc3C)C[C@@]3(C)C[C@@H]23)c2ccc(-c3cnc(C)nc3)cc12 [Compound 3, (1R,3S,5R)-2-(2-(3-acetyl-5-(2-methylpyrimidin-5-yl)-1H-indazol-1-yl)acetyl)-N-(6-bromo-3-methylpyridin-2-yl)-5-methyl-2-azabicyclo[3.1.0]hexane-3-carboxamide]
Crystallization technique: Maturation ([3]; 1,4-Dioxane): Clear solution | Crystallization technique: Maturation ([3]; 1-Butanol): Form A | Crystallization technique: Maturation ([3]; 2-Methyl Tetrahydrofuran): Form A | Crystallization technique: Maturation ([3]; 2-Propanol): Form A | Crystallization technique: Maturation ([3]; 40% Ethanol / 60% Water (% v/v) calc. aw = 0.7): Pattern N | Crystallization technique: Maturation ([3]; 50% 2-Propanol / 50% Heptane (% v/v), WC = weakly crystalline): Form A (WC) | Crystallization technique: Maturation ([3]; 50% Acetonitrile / 50% Water (% v/v) calc. aw = 0.9): Clear solution | Crystallization technique: Maturation ([3]; 50% Ethanol / 50% Heptane (% v/v)): Amorphous | Crystallization technique: Maturation ([3]; 70% 2-Propanol / 30% Heptane (% v/v), WC = weakly crystalline): Form B (WC) | Crystallization technique: Maturation ([3]; 70% 2-Propanol / 30% Water (% v/v) aw = 0.8): Form A | Crystallization technique: Maturation ([3]; 95% 2-Propanol / 5% Heptane (% v/v)): Form A | Crystallization technique: Maturation ([3]; 95% Heptane / 5% 2-Propanol (% v/v), WC = weakly crystalline): Form A (WC) | Crystallization technique: Maturation ([3]; 95% Methanol / 5% Water (% v/v) calc. aw = 0.2): Amorphous | Crystallization technique: Maturation ([3]; Acetone): Form B | Crystallization technique: Maturation ([3]; Acetonitrile): Form J | Crystallization technique: Maturation ([3]; Ethanol): Amorphous | Crystallization technique: Maturation ([3]; Ethyl Acetate (dry)): Amorphous | Crystallization technique: Maturation ([3]; Methanol): Pattern O | Crystallization technique: Maturation ([3]; Methylethyl Ketone): Form A | Crystallization technique: Maturation ([3]; Methylisobutyl Ketone, WC = weakly crystalline): Form A (WC) | Crystallization technique: Maturation ([3]; Tetrahydrofuran): Clear solution | Crystallization technique: Maturation ([3]; Toluene): Amorphous | Crystallization technique: Maturation ([3]; n-Heptane): Amorphous | Crystallization technique: Maturation ([3]; tert-Butylmethyl Ether): Amorphous

CC(=O)c1nn(CC(=O)N2[C@H](C(=O)Nc3nc(Br)ccc3C)C[C@@]3(C)C[C@@H]23)c2ccc(-c3cnc(C)nc3)cc12 [Form B]
XRPD [4]: Form B
